Reference: patent US20050069522A1, “Combination pharmaceutical agents as inhibitors of HCV replication” (priority 2002, published 2005)

Test system: HCV replicon (HCV 1b-377-neo replicon cells)
Assay: HCV replicon cell line FRET assay
Format: cell-based
Conditions: Hepatitis C virus; HCV replicon cell line, FRET assay; read-out: Replicon Inhibition Range EC50

Row | SMILES | EC50
1 | O=C(Nc1ccc(C2S/C(=N\c3cccc(F)c3)N(Cc3ccco3)C2=O)cc1)[C@@H]1CCCN1C(=O)Cc1ccc(Cl)cc1 (some centres unmarked) [Compound 128] | 0.1 to 1 µM
2 | CO[C@H](C(=O)N1CCC[C@H]1C(=O)Nc1ccc(C2S/C(=N\c3ccc(N4CCOCC4)cc3)N(Cc3ccccn3)C2=O)cc1)c1ccccc1 (some centres unmarked) [Compound 117] | < 0.1 µM
3 | CCc1cccc(/N=C2\SC(c3ccc(NC(=O)[C@H](C)NC(=O)OCc4ccccc4)cc3)C(=O)N2Cc2ccco2)c1 (some centres unmarked) [Compound 37] | 1 to 5 µM
4 | CO[C@@H](C(=O)N1CCC[C@H]1C(=O)Nc1ccc(C2S/C(=N\c3ccc(N4CCOCC4)cc3)N(Cc3ccccn3)C2=O)cc1)c1ccccc1 (some centres unmarked) [Compound 116] | < 0.1 µM
5 | O=C(Nc1ccc(C2S/C(=N\c3ccc(F)c(C(F)(F)F)c3)N(Cc3ccco3)C2=O)cc1)[C@@H]1CCCN1C(=O)OCc1ccccc1 (some centres unmarked) [Compound 67] | 1 to 5 µM
6 | C[C@H](NC(=O)OCc1ccccc1)C(=O)Nc1ccc(C2S/C(=N\c3cccc4ccncc34)N(Cc3ccco3)C2=O)cc1 (some centres unmarked) [Compound 12] | < 0.1 µM
7 | O=C(Nc1ccc(C2S/C(=N\c3ccc(F)c(Cl)c3)N(Cc3ccco3)C2=O)cc1)[C@@H]1CCCN1C(=O)OCc1ccccc1 (some centres unmarked) [Compound 51] | 1 to 5 µM
8 | C[C@H](NC(=O)OCc1ccccc1)C(=O)Nc1ccc(C2S/C(=N\c3cccc(F)c3)N(CCOc3ccccc3)C2=O)cc1 (some centres unmarked) [Compound 21] | 1 to 5 µM
9 | Cc1cc(F)ccc1/N=C1\SC(c2ccc(NC(=O)[C@@H]3CCCN3C(=O)OCc3ccccc3)cc2)C(=O)N1Cc1ccco1 (some centres unmarked) [Compound 57] | 1 to 5 µM
10 | O=C(Nc1ccc(C2S/C(=N\c3ccc(N4CCOCC4)cc3)N(Cc3ccccn3)C2=O)cc1)[C@@H]1CCCN1S(=O)(=O)Cc1ccccc1 (some centres unmarked) [Compound 132] | 1 to 5 µM
11 | O=C(Nc1ccc(C2S/C(=N\c3cccc(F)c3)N(CCc3cccs3)C2=O)cc1)[C@@H]1CCCN1C(=O)OCc1ccccc1 (some centres unmarked) [Compound 20] | 1 to 5 µM
12 | Cc1cnc(CN2C(=O)C(c3ccc(NC(=O)[C@@H]4CCC(=O)N4C(=O)OCc4ccccc4)cc3)S/C2=N\c2ccc(N3CCOCC3)cc2)cn1 (some centres unmarked) [Compound 71] | < 0.1 µM
13 | O=C(Nc1ccc(C2S/C(=N\c3ccc(N4CCOCC4)cc3)N(Cc3ccccn3)C2=O)cc1)[C@@H]1CCCN1C(=O)Cc1ccccc1Cl (some centres unmarked) [Compound 108] | < 0.1 µM
14 | C[C@H](NC(=O)OCc1ccccc1)C(=O)Nc1ccc(C2S/C(=N\Cc3ccccn3)N(C)C2=O)cc1 (some centres unmarked) [Compound 86] | 1 to 5 µM
15 | C[C@H](NC(=O)OCc1ccccc1)C(=O)Nc1ccc(C2S/C(=N\c3ccc(N4CCOCC4)cc3)N(Cc3ccccn3)C2=O)cc1 (some centres unmarked) [Compound 72] | < 0.1 µM
16 | C[C@H](NC(=O)OCc1ccccc1)C(=O)Nc1ccc(C2S/C(=N\c3cccc(F)c3)N(CC3CCCO3)C2=O)cc1 (some centres unmarked) [Compound 26] | 0.1 to 1 µM
17 | O=C(Nc1ccc(C2S/C(=N\c3ccc(N4CCOCC4)cc3)N(Cc3ccccn3)C2=O)cc1)[C@@H]1CCCN1C(=O)C1(c2ccc(F)cc2)CCCC1 (some centres unmarked) [Compound 105] | 0.1 to 1 µM
18 | C/N=C1\SC(c2ccc(NC(=O)[C@H](C)NC(=O)C(c3ccccc3)c3ccccc3)cc2)C(=O)N1Cc1ccccn1 (some centres unmarked) [Compound 111] | < 0.1 µM
19 | COc1ccc(CCN2C(=O)C(c3ccc(NC(=O)[C@@H]4CCCN4C(=O)OCc4ccccc4)cc3)S/C2=N\c2cccc(F)c2)cc1OC (some centres unmarked) [Compound 30] | 1 to 5 µM
20 | Cc1cnc(CN2C(=O)C(c3ccc(NC(=O)[C@H](C)NC(=O)OCc4ccccc4)cc3)S/C2=N\c2cccc(F)c2)cn1 (some centres unmarked) [Compound 6] | < 0.1 µM

Row | SMILES | EC50
21 | O=C(Nc1ccc(C2S/C(=N\c3cccnc3)N(Cc3cccc(F)c3)C2=O)cc1)[C@@H]1CCCN1C(=O)Cc1ccccc1 (some centres unmarked) [Compound 100] | < 0.1 µM
22 | CCOC(=O)/N=C1\SC(c2ccc(NC(=O)[C@H](C)NC(=O)OCc3ccccc3)cc2)C(=O)N1Cc1cccnc1 (some centres unmarked) [Compound 92] | < 0.1 µM
23 | COc1cccc(CN2C(=O)C(c3ccc(NC(=O)[C@H](C)NC(=O)OCc4ccccc4)cc3)S/C2=N\c2cccc(F)c2)c1 (some centres unmarked) [Compound 25] | 0.1 to 1 µM
24 | O=C(Nc1ccc(C2S/C(=N\c3ccc(N4CCOCC4)cc3)N(Cc3ccccn3)C2=O)cc1)[C@@H]1CCCN1C(=O)Cc1c(Cl)cccc1Cl (some centres unmarked) [Compound 104] | < 0.1 µM
25 | O=C(Nc1ccc(C2SC3=Nc4ccccc4CN3C2=O)cc1)[C@H]1CCCN1C(=O)OCc1ccccc1 (some centres unmarked) [Compound 139] | 0.1 to 1 µM
26 | C[C@H](NC(=O)OCc1ccccc1)C(=O)Nc1ccc(C2S/C(=N\c3ccc(N4CCOCC4)cc3)N(Cc3ccco3)C2=O)cc1 (some centres unmarked) [Compound 10] | < 0.1 µM
27 | C[C@H](NC(=O)Cc1ccccc1)C(=O)Nc1ccc(C2S/C(=N\c3cccc(F)c3)N(Cc3ccccn3)C2=O)cc1 (some centres unmarked) [Compound 96] | < 0.1 µM
28 | O=C(Nc1ccc(C2S/C(=N\c3ccc(N4CCOCC4)cc3)N(Cc3ccccn3)C2=O)cc1)[C@@H]1CCCN1C(=O)NCc1ccccc1 (some centres unmarked) [Compound 135] | < 0.1 µM
29 | C[C@H](NC(=O)OCc1ccccc1)C(=O)Nc1ccc(C2S/C(=N\c3cccc(F)c3)N(Cc3ccccn3)C2=O)cc1 (some centres unmarked) [Compound 4] | < 0.1 µM
30 | C[C@@H](C(=O)Nc1ccc(C2S/C(=N\c3ccc(N4CCOCC4)cc3)N(Cc3ccccn3)C2=O)cc1)N(C)C(=O)OCc1ccccc1 (some centres unmarked) [Compound 74] | 0.1 to 1 µM
31 | O=C(Nc1ccc(C2S/C(=N\c3cccc(OC(F)(F)F)c3)N(Cc3ccco3)C2=O)cc1)[C@@H]1CCCN1C(=O)OCc1ccccc1 (some centres unmarked) [Compound 55] | 0.1 to 1 µM
32 | O=C(Nc1ccc(C2S/C(=N\c3ccc4c(c3)CCC4)N(Cc3ccco3)C2=O)cc1)[C@@H]1CCCN1C(=O)OCc1ccccc1 (some centres unmarked) [Compound 38] | 0.1 to 1 µM
33 | O=C(Nc1ccc(C2S/C(=N\c3cc(F)cc(F)c3)N(Cc3ccco3)C2=O)cc1)[C@@H]1CCCN1C(=O)OCc1ccccc1 (some centres unmarked) [Compound 42] | 0.1 to 1 µM
34 | O=C(Nc1ccc(C2S/C(=N\c3ccc(N4CCOCC4)cc3)N(Cc3ccccn3)C2=O)cc1)[C@@H]1CCCN1C(=O)C(c1ccccc1)c1ccccc1 (some centres unmarked) [Compound 107] | < 0.1 µM
35 | O=C(Nc1ccc(C2S/C(=N\c3ccc(N4CCOCC4)cc3)N(Cc3ccccn3)C2=O)cc1)[C@@H]1CCC(=O)N1C(=O)C(c1ccccc1)c1ccccc1 (some centres unmarked) [Compound 113] | 0.1 to 1 µM
36 | O=C(Nc1ccc(C2S/C(=N\c3ccc(N4CCOCC4)cc3)N(Cc3ccco3)C2=O)cc1)[C@@H]1CCCN1C(=O)OCc1ccccc1 (some centres unmarked) [Compound 7] | < 0.1 µM
37 | CO[C@H](C(=O)N[C@@H](C)C(=O)Nc1ccc(C2S/C(=N\C(C)C)N(Cc3ccccn3)C2=O)cc1)c1ccccc1 (some centres unmarked) [Compound 122] | < 0.1 µM
38 | O=C(Nc1ccc(C2S/C(=N\c3ccc(N4CCOCC4)cc3)N(Cc3ccccn3)C2=O)cc1)[C@@H]1CCCN1C(=O)OCc1ccccc1 (some centres unmarked) [Compound 73] | < 0.1 µM
39 | COc1ccc(/N=C2\SC(c3ccc(NC(=O)[C@H](C)NC(=O)OCc4ccccc4)cc3)C(=O)N2Cc2ccco2)cc1F (some centres unmarked) [Compound 66] | 0.1 to 1 µM
40 | O=C(Nc1ccc(C2S/C(=N\c3cccc(F)c3)N(Cc3ccco3)C2=O)cc1)[C@@H]1CCCN1C(=O)COc1ccccc1 (some centres unmarked) [Compound 130] | 0.1 to 1 µM

Row | SMILES | EC50
41 | C[C@H](NC(=O)NCc1ccccc1)C(=O)Nc1ccc(C2S/C(=N\c3cccc(F)c3)N(Cc3ccco3)C2=O)cc1 (some centres unmarked) [Compound 133] | 0.1 to 1 µM
42 | O=C(Nc1ccc(C2S/C(=N\c3cccnc3)N(Cc3cccc(F)c3)C2=O)cc1)[C@@H]1CCCN1C(=O)OCc1ccccc1 (some centres unmarked) [Compound 77] | < 0.1 µM
43 | O=C(Nc1ccc(C2S/C(=N\c3cccc(F)c3)N(Cc3ccccn3)C2=O)cc1)[C@@H]1CCCN1C(=O)Cc1ccccc1 (some centres unmarked) [Compound 97] | < 0.1 µM
44 | CC(C)(C)O[C@@H]1C[C@@H](C(=O)Nc2ccc(C3S/C(=N\c4ccc(N5CCOCC5)cc4)N(Cc4ccccn4)C3=O)cc2)N(C(=O)OCc2ccccc2)C1 (some centres unmarked) [Compound 79] | 1 to 5 µM
45 | O=C(Nc1ccc(C2S/C(=N\c3ccc(N4CCOCC4)cc3)N(Cc3ccccn3)C2=O)cc1)[C@@H]1CCCN1C(=O)Cc1ccccc1 (some centres unmarked) [Compound 98] | < 0.1 µM
46 | Cc1cnc(CN2C(=O)C(c3ccc(NC(=O)[C@H](C)NC(=O)OCc4ccccc4)cc3)S/C2=N\c2ccc(N3CCOCC3)cc2)cn1 (some centres unmarked) [Compound 69] | < 0.1 µM
47 | C[C@H](NC(=O)OCc1ccccc1)C(=O)Nc1ccc(C2S/C(=N\c3ccc(N4CCOCC4)cc3)N(Cc3ccncc3)C2=O)cc1 (some centres unmarked) [Compound 82] | < 0.1 µM
48 | CCOC(=O)/N=C1\SC(c2ccc(NC(=O)[C@@H]3CCCN3C(=O)OCc3ccccc3)cc2)C(=O)N1Cc1ccccn1 (some centres unmarked) [Compound 91] | < 0.1 µM
49 | O=C(Nc1ccc(C2S/C(=N\c3ccc(N4CCOCC4)cc3)N(Cc3ccccn3)C2=O)cc1)[C@@H]1C[C@@H](O)CN1C(=O)OCc1ccccc1 (some centres unmarked) [Compound 78] | 0.1 to 1 µM
50 | C[C@H](NC(=O)OCc1ccccc1)C(=O)Nc1ccc(C2S/C(=N\c3cccc(F)c3)N(Cc3cccnc3)C2=O)cc1 (some centres unmarked) [Compound 27] | < 0.1 µM
51 | O=C(Nc1ccc(C2S/C(=N\c3ccc(N4CCOCC4)cc3)N(c3ccccn3)C2=O)cc1)[C@@H]1CCCN1C(=O)OCc1ccccc1 (some centres unmarked) [Compound 94] | < 0.1 µM
52 | C[C@H](NC(=O)OCc1ccccc1)C(=O)Nc1ccc(C2S/C(=N\c3ccc4c(c3)CCC4)N(Cc3ccco3)C2=O)cc1 (some centres unmarked) [Compound 39] | 1 to 5 µM
53 | CC(C)/N=C1\SC(c2ccc(NC(=O)[C@H](C)NC(=O)C(c3ccccc3)c3ccccc3)cc2)C(=O)N1Cc1ccccn1 (some centres unmarked) [Compound 123] | < 0.1 µM
54 | C[C@H](NC(=O)OCc1ccccc1)C(=O)Nc1ccc(C2S/C(=N\c3cccc(F)c3)N(Cc3ccc(F)c(F)c3F)C2=O)cc1 (some centres unmarked) [Compound 29] | 1 to 5 µM
55 | COc1ccc(C(F)(F)F)cc1/N=C1\SC(c2ccc(NC(=O)[C@@H]3CCCN3C(=O)OCc3ccccc3)cc2)C(=O)N1Cc1ccco1 (some centres unmarked) [Compound 49] | 0.1 to 1 µM
56 | C[C@H](NC(=O)OCc1ccccc1)C(=O)Nc1ccc(C2S/C(=N\c3ccc4c(c3)OCCO4)N(Cc3ccco3)C2=O)cc1 (some centres unmarked) [Compound 64] | < 0.1 µM
57 | O=C(Nc1ccc(C2S/C(=N\c3cccc(F)c3)N(Cc3ccco3)C2=O)cc1)[C@@H]1CCCN1C(=O)Cc1ccncc1 (some centres unmarked) [Compound 129] | 0.1 to 1 µM
58 | C[C@H](NC(=O)OCc1ccccc1)C(=O)Nc1ccc(C2S/C(=N\c3ccc(C(F)(F)F)cc3)N(Cc3ccco3)C2=O)cc1 (some centres unmarked) [Compound 62] | 1 to 5 µM
59 | CCC(C)c1ccc(/N=C2\SC(c3ccc(NC(=O)[C@@H]4CCCN4C(=O)OCc4ccccc4)cc3)C(=O)N2Cc2ccco2)cc1 (some centres unmarked) [Compound 45] | 0.1 to 1 µM
